# Laboratory results published in patent publication US7671181B2, “Polynucleotides encoding coccidian parasite casein kinase I, a chemotherapeutic target for antiprotozoal agents” (Merck Sharp & Dohme Corp., priority 2004, dated 2010).
# Columns and labels:
# [1] = molecular target: FLAGTgCDPK3 (Toxoplasma gondii, UniProt A0A125YQG4); experiment: Protein kinase assay, FLAGTgCDPK3; format: biochemical; details: read-out: IC50, FLAGTgCDPK3; recombinant enzyme, dose response titrations
# Protocol: (§1) Protein kinase assays—Casein kinase activity was assayed essentially as described (Donald, R. G. K. et al., 2002, supra) using 96-well phosphocellulose plates (MAPH-NOB, Millipore; Billerica, Mass.) to capture ^33P-phosphorylated peptide or casein substrates. Kinase reactions were carried out in 40 μl volumes containing 25 mM Hepes, pH 7.4, 10 mM MgCl2, 20 mM β-glycerophosphate, 1 mM DTT, 250 μM substrate, 1 mg/mL BSA, 2 μM ATP, and 0.01 μM [γ-^33P]ATP (Perkin-Elmer, 3000 Ci/mmol). The reactions were initiated by the addition of enzyme and incubated at room temperature for 60 min. Casein (5% solution), partially dephosphorylated α-casein and β-casein were obtained from Sigma.
# (§2) A variety of commercially available peptide substrates were evaluated. From Calbiochem (San Diego, Calif.): CKI substrate (RRKDLHDDEEDEAMSITA; SEQ ID NO:13); CKII substrate (RRADDSDDDDD; SEQ ID NO:14); Syntide-2 substrate (PLARTLSVAGLPGKK; SEQ ID NO:15); CaM kinase II substrate (281-291) (MHKNETVECLK; SEQ ID NO:16). From Promega: CKI substrate (DDDEESITRR; SEQ ID NO:17) and kemptide (LRRASLG; SEQ ID NO:18). From New England Biolabs (Beverly, Mass.): CKI phosphopeptide substrate (KRRRALS(p)VASLPGL; SEQ ID NO:19), and CKII substrate (RRREEETEEE; SEQ ID NO:20). PKG assays were performed with kemptide as substrate and 10 μM cGMP. CDPK was assayed with Syntide-2 substrate and in the presence of 100 μM CaCl2.
# [2] = molecular target: EtCKIα (Eimeria tenella, UniProt Q6QNL9); experiment: Casein kinase assay, partially purified native EtCKIα; format: biochemical; details: partially purified native enzyme from Eimeria oocysts; read-out: IC50, nativeEtCKIα
# Protocol: as §1, §2
# Partial purification of native EtCKIα—The inability to stably express recombinant EtCKIα in T. gondii provided impetus to purify native enzyme from E. tenella parasites (slide 5). A lysate was prepared from 2×10^10 unsporulated oocysts using previously published procedures (Gurnett, A. M. et al., 2002, supra). The first two steps of the purification scheme used were essentially scaled-up from the method described for the purification of native TgCKIα. The lysate was subjected to preparative HiLoad Q anion-exchange chromatography and fractions eluted with a NaCl gradient (0-1 M NaCl). […]
# [3] = molecular target: T1, TgCDPK1 (Toxoplasma gondii, UniProt Q9BJF5); experiment: CDPK assay with Syntide-2, T. gondii CDPK1; format: biochemical
# T1 construct: The TgCDPK1 open reading frame was amplified by PCR from a Toxoplasma cDNA library; made in house
# Protocol: as §1, §2
# Purification of recombinant TgCDPK1 and TgPKG—The TgCDPK1 open reading frame was amplified by PCR from a Toxoplasma cDNA library, using primers based on the published sequence (Kieschnick et al., 2001, supra): sense primer, […] (SEQ ID NO:44); and, antisense primer, […] (SEQ ID NO:45). A C-terminal FLAG epitope tag was appended to the TgCDPK1 open reading frame by an additional round of PCR amplification (KOD polymerase) and the resulting DNA fragment was sub-cloned into a tubulin promoter expression vector (Donald and Liberator, 2002, supra). […]
# [4] = molecular target: FLAGEtCDPK1 (Eimeria tenella, UniProt Q3HNM4); experiment: Protein kinase assay, FLAGEtCDPK1; format: biochemical; details: recombinant enzyme, dose response titrations
# Protocol: as §1, §2
# [5] = molecular target: T2, EtPKG (Eimeria tenella, UniProt Q8MMZ8); experiment: PKG assay with kemptide, native EtPKG; format: biochemical; details: native enzyme from Eimeria oocysts; read-out: IC50, nativeEtPKG
# T2 construct: Eimeria oocysts (EtCKIα and EtPKG); from tissue; host or cells: Eimeria oocysts
# Protocol: as §1, §2
# [6] = molecular target: TgCKIα (Toxoplasma gondii, UniProt Q6QNM1); experiment: Casein kinase assay, TgCKIα (recombinant FLAGTgCKIα or partially purified native); format: biochemical; design: Km(app), native TgCKIα; other: substrate titration, 2 μM ATP; IC50, nativeTgCKIα; other: partially purified native enzyme from Toxoplasma tachyzoites; sensitivity of native TgCKIα phosphopeptide kinase activity (HiTrapQ fractions 5-9); other: 0.2 μM hymenialdisine or 1
# Protocol: as §1, with “The reactions were initiated by the addition of enzyme and incubated at room temperature for 60 min.” left out
# as §2
# Purification of recombinant CKI enzymes—E. coli strain BL21 Origami™ (Novagen) was transformed with FLAGTgCKIα and FLAGTgCKIβ expression vectors, and colonies were expanded into 250 mL LB cultures grown at 37° C. Expression was induced with 1 mM IPTG once cultures had reached an OD600nm of 0.3-0.5, and the transformed bacteria were harvested 4-6 hours later. Cell pellets were resuspended in 15 mL of lysis buffer containing protease inhibitors and lysates prepared as described by the supplier (Bugbuster™ reagents, Novagen). The concentration of NaCl in the lysate was adjusted to 0.5 M, and 0.5 mL of FLAG-agarose beads were added (Sigma). The mixture was allowed to rock in a Nutator mixer (Becton-Dickinson; San Jose, Calif.) for 2 hours at 4° C. The slurry was then poured into an empty column and the matrix washed with 50 mL of wash buffer (50 mM Tris-HCl, pH 7.4, 0.5M NaCl, 10% glycerol, 1 mM DTT, 1 mM EDTA). […] Protein was measured with a micro-BCA reagent (Pierce) following a TCA-sodium deoxycholate step to remove residual FLAG peptide (Brown et al., 1989, Anal. Biochem. 180:136-139). […]
# (§3) Preparations of FLAGTgCKIα and FLAGTgCKIβ were purified further on a SMART system FPLC 0.1 mL MonoQ anion exchange column (Pharmacia; New York, N.Y.) equilibrated in buffer A (50 mM Hepes, pH 7.4, 10% glycerol, 1 mM DTT) at room temperature. […] A linear salt gradient was applied (0-500 mM in 3 mL at 100 μl/min) and 100 μl fractions were collected and analyzed by SDS-PAGE and for CKI activity. […]
# [7] = molecular target: T3, Toxoplasma gondii calmodulin domain-like protein kinase 1 (FLAGTgCDPK1, recombinant) (Toxoplasma gondii, UniProt Q9BJF5); experiment: Kinase assay, inhibition of recombinant TgCDPK1; format: biochemical; details: CDK inhibitor study (text to Table 2)
# T3 construct: FLAG (C); made in house; host or cells: transgenic Toxoplasma gondii parasites
# Protocol: as §1
# A variety of commercially available peptide substrates were evaluated. […]
# Purification of recombinant TgCDPK1 and TgPKG—The TgCDPK1 open reading frame was amplified by PCR from a Toxoplasma cDNA library, using primers based on the published sequence (Kieschnick et al., 2001, supra): sense primer, […] […] A C-terminal FLAG epitope tag was appended to the TgCDPK1 open reading frame by an additional round of PCR amplification (KOD polymerase) and the resulting DNA fragment was sub-cloned into a tubulin promoter expression vector (Donald and Liberator, 2002, supra). […]
# [8] = molecular target: T4, Toxoplasma gondii casein kinase I alpha (TgCKIα), recombinant FLAG-tagged or native, SEQ ID NO:4 (Toxoplasma gondii, UniProt Q6QNM1); experiment: Casein kinase assay, inhibition of TgCKIα (recombinant or native forms); format: biochemical
# T4 construct: same protein
# Protocol: as §1
# A variety of commercially available peptide substrates were evaluated. From Calbiochem (San Diego, Calif.): CKI substrate (RRKDLHDDEEDEAMSITA; SEQ ID NO:13); CKII substrate (RRADDSDDDDD; SEQ ID NO:14); Syntide-2 substrate (PLARTLSVAGLPGKK; SEQ ID NO:15); CaM kinase II substrate (281-291) (MHKNETVECLK; SEQ ID NO:16). […]
# as §3
# [9] = test system: T. gondii; experiment: Parasite growth inhibition, modified [3H]-uracil uptake assay in infected HFF cell monolayers; format: cell-based, Toxoplasma gondii; details: Toxoplasma gondii, HFF
# Text: Host cells and parasite cultures—RH strain or RH ΔHXGPRT strain tachyzoites of T. gondii were maintained by serial passage in confluent monolayers of human foreskin fibroblasts (“HFF”) as described (Roos, D. S. et al., 1994, Methods Cell Biol. 45:27-63). A modified [^3H]-uracil uptake assay (Pfefferkorn, E. R. and Pfefferkorn, L. C., 1977, J. Protozool. 24:449-453) adapted for use in 96-well scintillation plates (Cytostar-T, Amersham; Piscataway, N.J.) was used to measure parasite growth inhibition. Each well, previously seeded with HFF cells, was inoculated with T. gondii tachyzoites (2×10^4) in 200 μl of growth media containing 2 μCi [5,6]-^3H-uracil (Perkin-Elmer NEN; Boston, Mass.) and serially diluted compound. Following incubation at 37° C. for 36-48 hours, tritium-incorporation into host cell monolayers was directly counted in a microplate scintillation counter (MicroBeta, PerkinElmer-Wallac).
# The only other CDK inhibitor with sub-μM activity against T. gondii was indirubin-3′-monoxime, which gave an IC50 value of 500 nM.
# Chain of TgCKIα (Q6QNM1 whole entry, looked up): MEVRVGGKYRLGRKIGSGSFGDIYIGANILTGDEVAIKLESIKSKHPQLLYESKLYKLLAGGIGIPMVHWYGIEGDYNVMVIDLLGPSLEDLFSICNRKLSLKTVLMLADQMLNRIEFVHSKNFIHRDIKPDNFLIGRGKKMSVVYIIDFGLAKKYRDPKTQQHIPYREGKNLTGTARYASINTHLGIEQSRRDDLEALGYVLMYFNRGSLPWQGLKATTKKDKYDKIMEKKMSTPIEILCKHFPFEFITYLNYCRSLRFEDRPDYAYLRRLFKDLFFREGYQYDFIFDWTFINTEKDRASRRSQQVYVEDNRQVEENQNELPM
# T4 sequence (Q6QNM1 whole entry): as the sequence (Q6QNM1 whole entry, looked up) above
# T2 sequence (Q8MMZ8 whole entry): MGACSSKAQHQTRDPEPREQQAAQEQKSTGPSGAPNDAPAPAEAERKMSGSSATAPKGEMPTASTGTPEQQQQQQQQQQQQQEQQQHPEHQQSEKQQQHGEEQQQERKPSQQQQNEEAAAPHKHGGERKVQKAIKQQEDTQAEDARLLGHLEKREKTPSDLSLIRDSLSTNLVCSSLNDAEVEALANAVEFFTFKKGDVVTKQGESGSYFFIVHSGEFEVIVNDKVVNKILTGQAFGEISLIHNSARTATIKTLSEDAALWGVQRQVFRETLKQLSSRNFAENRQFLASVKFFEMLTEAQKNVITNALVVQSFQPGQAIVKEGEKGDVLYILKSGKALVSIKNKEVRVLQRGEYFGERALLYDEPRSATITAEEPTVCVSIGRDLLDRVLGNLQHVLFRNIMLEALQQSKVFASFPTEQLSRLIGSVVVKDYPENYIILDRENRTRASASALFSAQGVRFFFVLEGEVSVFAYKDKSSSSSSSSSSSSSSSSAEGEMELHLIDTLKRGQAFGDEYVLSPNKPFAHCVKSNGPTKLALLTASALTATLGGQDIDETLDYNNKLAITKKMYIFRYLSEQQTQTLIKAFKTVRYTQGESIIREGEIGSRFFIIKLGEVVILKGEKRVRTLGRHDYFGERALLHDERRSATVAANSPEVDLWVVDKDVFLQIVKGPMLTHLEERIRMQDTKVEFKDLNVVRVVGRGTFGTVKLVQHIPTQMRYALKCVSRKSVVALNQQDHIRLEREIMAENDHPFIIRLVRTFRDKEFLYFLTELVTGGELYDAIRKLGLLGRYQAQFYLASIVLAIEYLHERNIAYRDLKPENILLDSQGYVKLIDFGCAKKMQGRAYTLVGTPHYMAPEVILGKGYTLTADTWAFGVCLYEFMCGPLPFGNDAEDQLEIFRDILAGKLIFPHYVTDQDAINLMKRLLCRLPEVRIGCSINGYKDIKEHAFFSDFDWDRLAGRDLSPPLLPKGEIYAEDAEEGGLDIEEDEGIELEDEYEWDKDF
# Chain of FLAGEtCDPK1 (Q3HNM4 entry or part of it): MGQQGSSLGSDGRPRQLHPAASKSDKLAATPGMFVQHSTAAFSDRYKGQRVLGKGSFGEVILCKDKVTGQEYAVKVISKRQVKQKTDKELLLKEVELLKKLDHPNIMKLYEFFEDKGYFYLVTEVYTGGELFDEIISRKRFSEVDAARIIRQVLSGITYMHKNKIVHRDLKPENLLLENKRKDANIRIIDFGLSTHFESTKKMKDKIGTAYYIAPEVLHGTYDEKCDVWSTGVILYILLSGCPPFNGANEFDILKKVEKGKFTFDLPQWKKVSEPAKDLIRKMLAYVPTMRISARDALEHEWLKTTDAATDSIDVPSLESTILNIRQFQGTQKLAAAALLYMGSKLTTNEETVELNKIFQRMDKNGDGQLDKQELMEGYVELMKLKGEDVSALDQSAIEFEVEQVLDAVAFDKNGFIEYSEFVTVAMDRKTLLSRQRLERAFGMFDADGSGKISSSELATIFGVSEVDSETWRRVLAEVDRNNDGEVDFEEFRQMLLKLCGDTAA
# Chain of EtCKIα (Q6QNL9 whole entry): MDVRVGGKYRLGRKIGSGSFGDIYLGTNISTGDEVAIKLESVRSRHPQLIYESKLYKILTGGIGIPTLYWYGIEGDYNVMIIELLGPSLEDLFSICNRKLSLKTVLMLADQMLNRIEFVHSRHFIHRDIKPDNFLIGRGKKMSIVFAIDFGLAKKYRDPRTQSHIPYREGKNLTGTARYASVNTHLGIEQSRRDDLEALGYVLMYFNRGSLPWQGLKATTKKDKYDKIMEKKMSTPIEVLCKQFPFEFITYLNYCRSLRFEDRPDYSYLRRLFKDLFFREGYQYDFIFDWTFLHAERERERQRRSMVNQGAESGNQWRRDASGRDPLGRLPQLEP
# T3 sequence (Q9BJF5 entry or part of it): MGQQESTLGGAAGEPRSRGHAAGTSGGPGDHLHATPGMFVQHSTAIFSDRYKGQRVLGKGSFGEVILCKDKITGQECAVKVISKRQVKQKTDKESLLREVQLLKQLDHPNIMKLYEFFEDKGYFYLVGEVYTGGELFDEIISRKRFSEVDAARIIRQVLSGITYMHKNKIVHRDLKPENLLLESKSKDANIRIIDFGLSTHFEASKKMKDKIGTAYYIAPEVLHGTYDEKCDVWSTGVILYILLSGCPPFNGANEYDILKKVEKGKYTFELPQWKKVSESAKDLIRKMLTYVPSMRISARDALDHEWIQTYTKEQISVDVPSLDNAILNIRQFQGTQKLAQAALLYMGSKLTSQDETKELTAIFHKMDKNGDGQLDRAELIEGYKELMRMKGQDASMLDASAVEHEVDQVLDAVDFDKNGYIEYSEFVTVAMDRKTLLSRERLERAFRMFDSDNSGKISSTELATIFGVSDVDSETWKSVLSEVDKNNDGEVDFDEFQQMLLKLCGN
# T1 sequence (Q9BJF5 entry or part of it): as above
# Chain of FLAGTgCDPK3 (A0A125YQG4 entry or part of it): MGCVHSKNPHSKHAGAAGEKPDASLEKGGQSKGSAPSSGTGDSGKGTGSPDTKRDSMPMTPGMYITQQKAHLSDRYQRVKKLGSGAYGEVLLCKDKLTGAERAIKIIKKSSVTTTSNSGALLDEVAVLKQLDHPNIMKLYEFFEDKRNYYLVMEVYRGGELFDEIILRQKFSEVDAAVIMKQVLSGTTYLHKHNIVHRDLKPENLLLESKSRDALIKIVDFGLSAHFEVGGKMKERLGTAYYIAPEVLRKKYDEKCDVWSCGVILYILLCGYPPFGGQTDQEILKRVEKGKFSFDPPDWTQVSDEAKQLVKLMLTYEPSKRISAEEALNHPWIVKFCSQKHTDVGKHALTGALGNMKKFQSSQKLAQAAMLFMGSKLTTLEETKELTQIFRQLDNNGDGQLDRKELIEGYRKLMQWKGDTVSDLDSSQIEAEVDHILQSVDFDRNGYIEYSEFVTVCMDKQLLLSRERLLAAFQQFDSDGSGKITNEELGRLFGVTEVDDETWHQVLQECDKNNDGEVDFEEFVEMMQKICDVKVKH
Structure (SMILES),IC50 [1] [µM],IC50 [2] [µM],IC50 [3] [µM],IC50 [4] [µM],IC50 [5] [µM],IC50 [6] [µM],IC50 [7] [µM],IC50 [8] [µM],IC50 [9] [µM]
"CN1CCC(c2ccn3c(-c4ccnc(N)n4)c(-c4ccc(F)cc4)nc3c2)CC1 [Compound 39, 4[2-(4-Fluorophenyl)1-7-(1-methylpiperidin-4-yl)imidazo[1,2-a]pyridin-3-yl]pyrimidin-2-amine]",> 10,0.069,0.0005,0.126,0.0005,0.015,,,
O=C1Nc2ccccc2/C1=C1/Nc2ccccc2/C1=N\O [indirubin-3′-monoxime],,,,,,,0.175,0.172,0.5
